# Test results as given in ChEMBL document CHEMBL4024779, “Novel Terminal Bipheny-Based Diapophytoene Desaturases (CrtN) Inhibitors as Anti-MRSA/VISR/LRSA Agents with Reduced hERG Activity” (J Med Chem, 2018).
# Experiments:
# [1] = biological target: T1, 4,4'-diapophytoene desaturase (4,4'-diaponeurosporene-forming) (Staphylococcus aureus (strain Newman), UniProt O07855); test: Inhibition of CrtN in Staphylococcus aureus Newman assessed as reduction in staphyloxanthin levels after 48 hrs by spectrophotometric method-based pigment inhibition assay; set-up: species or system Staphylococcus aureus subsp. aureus str. Newman
# T1 sequence (O07855 whole entry): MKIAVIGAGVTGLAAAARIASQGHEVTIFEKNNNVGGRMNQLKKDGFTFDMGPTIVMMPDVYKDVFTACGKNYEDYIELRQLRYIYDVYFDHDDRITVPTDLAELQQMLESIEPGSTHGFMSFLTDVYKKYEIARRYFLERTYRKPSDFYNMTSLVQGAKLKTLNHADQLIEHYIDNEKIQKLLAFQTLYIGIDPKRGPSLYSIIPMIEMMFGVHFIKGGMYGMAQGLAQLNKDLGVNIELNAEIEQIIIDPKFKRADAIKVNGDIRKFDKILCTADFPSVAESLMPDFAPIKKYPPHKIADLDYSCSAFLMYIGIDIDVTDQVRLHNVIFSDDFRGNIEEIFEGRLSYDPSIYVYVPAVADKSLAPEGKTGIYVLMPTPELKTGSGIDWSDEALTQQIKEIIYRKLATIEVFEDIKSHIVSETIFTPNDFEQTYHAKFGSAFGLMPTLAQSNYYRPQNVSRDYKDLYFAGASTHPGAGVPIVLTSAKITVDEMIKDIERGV
# HepG2 = test: Cytotoxicity against human HepG2 cells after 43 hrs by Alamar blue dye-based fluorescence assay; assay type: cell-based; settings: HepG2, 43 h
# [2] = Cytotoxicity against HEK293 cells after 43 hrs by Alamar blue dye-based fluorescence assay; assay type: cell-based; settings: human
# Trichophyton verrucosum = test: In vitro antifungal activity against Trichophyton verrucosum after 7 days by serial dilution method; assay type: functional; settings: 168 h
# Nannizzia gypsea = test: In vitro antifungal activity against Microsporum gypseum after 7 days by serial dilution method; assay type: functional; settings: 168 h
# [3] = tested on: Trichophyton mentagrophytes; test: In vitro antifungal activity against Trichophyton mentagrophytes after 7 days by serial dilution method; assay type: functional; settings: 168 h
# Trichophyton rubrum = test: In vitro antifungal activity against Trichophyton rubrum after 7 days by serial dilution method; assay type: functional; settings: 168 h
Compound,IC50 [1] [nM],also measured
CN(C/C=C/c1cccs1)Cc1coc2ccccc12,> 1000,
CN(C/C=C/c1cccc(F)c1)Cc1coc2ccccc12,> 1000,
COc1ccc(/C=C/CN(C)Cc2cccc3cc[nH]c23)cc1F,> 1000,
CN(C/C=C/c1ccc([N+](=O)[O-])cc1)Cc1coc2ccccc12,9.5,
CN(CC#Cc1ccc(-c2ccccc2)cc1)Cc1coc2ccccc12,> 1000,
CN(C/C=C/c1ccc(C(C)(C)C)cc1)Cc1coc2ccccc12,> 1000,
CN(C/C=C/c1cccc(C(F)(F)F)c1)Cc1cccc2cc[nH]c12,> 1000,
CN(C/C=C/C=C/c1ccc(-c2ccccc2)cc1)Cc1coc2ccccc12,> 1000,
CN(C/C=C/c1ccc(C(F)(F)F)c(F)c1)Cc1coc2ccccc12,> 1000,
CN(C/C=C/c1ccccc1F)Cc1cccc2cc[nH]c12,> 1000,
CN(C/C=C/c1ccc(Cl)cc1)Cc1coc2ccccc12,4.9,IC50 (HepG2): 60200 nM; CC50 at 43 h [2]: 42100 nM
CN(C/C=C/c1ccc(C(F)(F)F)cc1)Cc1coc2ccccc12,9.8,
CN(C/C=C/c1ccc(C(F)(F)F)c(F)c1)Cc1cccc2cc[nH]c12,> 1000,
CN(C/C=C/c1cccc(Cl)c1)Cc1cccc2cc[nH]c12,> 1000,
Cc1ccc(/C=C/CN(C)Cc2cccc3cc[nH]c23)cc1,199,
CCN(C/C=C/c1ccc(C(F)(F)F)cc1)CC1=COC2C=CC=CC12 (stereo not drawn),> 1000,
CN(C/C=C/c1ccc(C(F)(F)F)cc1F)Cc1cccc2cc[nH]c12,48.4,
CN(C/C=C/c1ccc(F)cc1)Cc1coc2ccccc12,74.1,
CN(C/C=C/c1ccco1)Cc1cccc2cc[nH]c12,> 1000,
COC(=O)c1ccc(/C=C/CN(C)Cc2coc3ccccc23)cc1,9.5,
CN(C/C=C/c1ccc(C(F)(F)F)cc1)Cc1cc2ccccc2s1,102,
CN(C/C=C/c1ccc(Br)cc1)Cc1cccc2cc[nH]c12,83.8,
CN(C/C=C/c1cccc(F)c1)Cc1cccc2cc[nH]c12,> 1000,
CN(C/C=C/c1cccc2ccccc12)Cc1cccc2cc[nH]c12,> 1000,
CCOc1ccc(/C=C/CN(C)Cc2cccc3cc[nH]c23)cc1,64.8,

Compound,IC50 [1] [nM],also measured
CC(C)N(C/C=C/c1ccc(C(F)(F)F)cc1)Cc1cccc2cc[nH]c12,> 1000,
OC(Cn1cncn1)(Cn1cncn1)c1ccc(F)cc1F [FLUCONAZOLE],,MIC80 (Trichophyton verrucosum): 2 µg/mL; MIC80 (Nannizzia gypsea): 8 µg/mL; MIC80 [3]: 2 µg/mL; MIC80 (Trichophyton rubrum): 1 µg/mL
CN(C/C=C/c1ccc(C(F)F)cc1)Cc1cccc2cc[nH]c12,43.5,
COc1ccc(/C=C/CN(C)Cc2coc3ccccc23)c(F)c1,> 1000,
CN(C/C=C/C1CCCC1)Cc1cccc2cc[nH]c12,> 1000,
CN(C/C=C/c1ccccc1)Cc1coc2ccccc12,> 1000,
CN(C/C=C/c1ccc(C(F)(F)F)cc1)Cc1cc2ccccc2[nH]1,> 1000,
COc1ccc(/C=C/CN(C)Cc2cccc3cc[nH]c23)c(F)c1,73.1,
COc1ccccc1/C=C/CN(C)Cc1cccc2cc[nH]c12,> 1000,
Cc1ccccc1/C=C/CN(C)Cc1cccc2cc[nH]c12,> 1000,
CN(C/C=C/c1cccc([N+](=O)[O-])c1)Cc1coc2ccccc12,> 1000,
CN(C/C=C/c1ccc(Cl)cc1Cl)Cc1coc2ccccc12,6.2,
C[C@@H]1[C@H](O)[C@@H](C)/C=C/C=C/C=C/C=C/C=C/C=C/C=C/[C@H](O[C@@H]2O[C@H](C)[C@@H](O)[C@H](N)[C@@H]2O)C[C@@H]2O[C@](O)(C[C@@H](O)C[C@@H](O)[C@H](O)CC[C@@H](O)C[C@@H](O)CC(=O)O[C@H]1C)C[C@H](O)[C@H]2C(=O)O [AMPHOTERICIN B],,IC50 (HepG2): 3100 nM; CC50 at 43 h [2]: 4200 nM
FC(F)(F)c1ccc(/C=C/CNCC2=COC3C=CC=CC23)cc1 (stereo not drawn),> 1000,
COc1ccccc1/C=C/CN(C)Cc1coc2ccccc12,> 1000,
CN(C/C=C/c1ccccc1Cl)Cc1cccc2cc[nH]c12,> 1000,
CN(C/C=C/c1ccc2ccccc2c1)Cc1cccc2cc[nH]c12,132,
CN(C/C=C/c1ccc(C(F)(F)F)cc1)Cc1csc2ccccc12,> 1000,
CN(C/C=C/C1CCCCC1)Cc1coc2ccccc12,> 1000,
CN(C/C=C/c1ccc(C#N)cc1)Cc1cccc2cc[nH]c12,785,
CN(C/C=C/c1ccco1)Cc1coc2ccccc12,> 1000,
CN(C/C=C/c1ccc(Cl)cc1Cl)Cc1cccc2cc[nH]c12,280,
CN(C/C=C/c1ccc(C(F)(F)F)cc1F)Cc1coc2ccccc12,9.2,
CN(C/C=C/c1ccc([N+](=O)[O-])cc1)Cc1cccc2cc[nH]c12,> 1000,
CN(C/C=C/c1ccc(C(C)(C)C)cc1)Cc1cccc2cc[nH]c12,700,

Compound,IC50 [1] [nM],also measured
CN(C/C=C/c1ccc(Cl)cc1)Cc1cccc2cc[nH]c12,143,
COc1cccc(/C=C/CN(C)Cc2cccc3cc[nH]c23)c1,> 1000,
CN(C/C=C/c1ccccc1Cl)Cc1coc2ccccc12,360,
CN(C/C=C/c1cccc2ccccc12)Cc1coc2ccccc12,> 1000,
C/C(=C\c1ccc(-c2ccccc2)cc1)CN(C)Cc1coc2ccccc12,> 1000,
CN(C/C=C/c1cccs1)Cc1cccc2cc[nH]c12,> 1000,
CN(C/C=C/C1CCCCC1)Cc1cccc2cc[nH]c12,> 1000,
CN(C/C=C/c1ccc(C(F)(F)F)cc1)Cc1ccc2cc[nH]c2c1,64.3,
CN(C/C=C/c1ccc(C(F)(F)F)cc1)Cc1cccc2[nH]ccc12,89.6,
COc1ccc(/C=C/CN(C)Cc2coc3ccccc23)cc1F,> 1000,
CN(C/C=C/c1ccccc1[N+](=O)[O-])Cc1cccc2cc[nH]c12,> 1000,
CN(C/C=C/c1cccc([N+](=O)[O-])c1)Cc1cccc2cc[nH]c12,> 1000,
CCOc1ccc(/C=C/CN(C)Cc2coc3ccccc23)cc1,> 1000,
CN(CCCc1ccc(-c2ccccc2)cc1)Cc1coc2ccccc12,> 1000,
FC(F)(F)c1ccc(/C=C/CNCc2cccc3cc[nH]c23)cc1,> 1000,
CN(C/C=C/c1ccccc1F)Cc1coc2ccccc12,> 1000,
Cc1cccc(/C=C/CN(C)Cc2coc3ccccc23)c1,> 1000,
C/C=C/CN(C)Cc1cccc2cc[nH]c12,> 1000,
CN(C/C=C/c1ccc(C(F)F)cc1)Cc1coc2ccccc12,6.4,
COc1cccc(/C=C/CN(C)Cc2coc3ccccc23)c1,> 1000,
CN(C/C=C/c1ccc(C(F)(F)F)cc1)Cc1cccc2cc[nH]c12,50.2,
CN(C/C=C/c1ccc(Br)cc1)Cc1coc2ccccc12,2.5,IC50 (HepG2): 33000 nM; CC50 at 43 h [2]: 41900 nM
CN(C/C=C/c1cccc(Cl)c1)Cc1coc2ccccc12,> 1000,
Cc1cccc(/C=C/CN(C)Cc2cccc3cc[nH]c23)c1,> 1000,
C/C=C/CN(C)Cc1coc2ccccc12,91.3,

Compound,IC50 [1] [nM],also measured
CN(C/C=C/c1ccc2ccccc2c1)Cc1coc2ccccc12,6.4,
Cc1ccc(/C=C/CN(C)Cc2coc3ccccc23)cc1,9.9,
CC(=O)N1CCN(c2ccc(OCC3COC(Cn4ccnc4)(c4ccc(Cl)cc4Cl)O3)cc2)CC1 (stereo not drawn) [KETOCONAZOLE],,MIC80 (Trichophyton verrucosum): 0.0625 µg/mL; MIC80 (Nannizzia gypsea): 2 µg/mL; MIC80 [3]: 0.0625 µg/mL; MIC80 (Trichophyton rubrum): 0.5 µg/mL
CC(C)N(C/C=C/c1ccc(C(F)(F)F)cc1)CC1=COC2C=CC=CC12 (stereo not drawn),> 1000,
CN(C/C=C/c1ccccc1C(F)(F)F)Cc1cccc2cc[nH]c12,> 1000,
CN(C/C=C/C1CCCC1)Cc1coc2ccccc12,397,
COC(=O)c1ccc(/C=C/CN(C)Cc2cccc3cc[nH]c23)cc1,87.8,
CN(C/C=C/c1ccc(C(F)(F)F)cc1)Cc1ccc2[nH]ccc2c1,62.8,
CN(C/C=C/c1ccc(C#N)cc1)Cc1coc2ccccc12,80.1,
CN(CCCc1ccc(-c2ccccc2)cc1)Cc1cccc2cc[nH]c12,> 1000,
C/C(=C\c1ccc(-c2ccccc2)cc1)CN(C)Cc1cccc2cc[nH]c12,> 1000,
CN(C/C=C/c1ccc(C(F)(F)F)cc1)Cc1cc2ccccc2o1,73.2,
C[C@@H](c1ncncc1F)[C@](O)(Cn1cncn1)c1ccc(F)cc1F [VORICONAZOLE],,MIC80 (Trichophyton verrucosum): 0.0312 µg/mL; MIC80 (Nannizzia gypsea): 0.25 µg/mL; MIC80 [3]: 0.0312 µg/mL; MIC80 (Trichophyton rubrum): 0.0312 µg/mL
CN(C/C=C/c1ccccc1[N+](=O)[O-])Cc1coc2ccccc12,74.1,
CN(C/C=C/c1cccc(C(F)(F)F)c1)Cc1coc2ccccc12,> 1000,
CN(C/C=C/c1ccccc1)Cc1cccc2cc[nH]c12,> 1000,
CCN(C/C=C/c1ccc(C(F)(F)F)cc1)Cc1cccc2cc[nH]c12,118,
Cc1ccccc1/C=C/CN(C)Cc1coc2ccccc12,86.4,
CN(C/C=C/c1ccc(C(F)(F)F)cc1)Cc1c[nH]c2ccccc12,> 1000,
CN(CC#Cc1ccc(-c2ccccc2)cc1)Cc1cccc2cc[nH]c12,102,
CN(CC/C=C/c1ccc(-c2ccccc2)cc1)Cc1coc2ccccc12,> 1000,
CN(C/C=C/c1ccc(F)cc1)Cc1cccc2cc[nH]c12,> 1000,
CN(C/C=C/c1ccccc1C(F)(F)F)Cc1coc2ccccc12,> 1000,
COc1ccc(/C=C/CN(C)Cc2cccc3cc[nH]c23)cc1,167,
